Patent US4620871A (priority 1980, dated 1986)

Legend:
[1] = test system: hybrid maize; assay: Grain yield of maize (Example 29); assay type: in vivo
Experimental: The compositions according to the invention were applied as seed dressing agents onto the sowing-seeds of hybrid maize in a dosis of 0.5 kg/ha. The powdery compositions were wetted with water prior to application. The stand was sprayed three times during the cultivation period: first at the four-leaves development stage with a dosis of 3 kg/ha, then prior to tasseling with a dosis of 1 kg/ha, and finally prior to pollen ripening with a dosis of 2 kg/ha. The crop was evaluated as May shelled corn.

[2] = test system: maize for silage; assay: Maize for silage field tests 1979, Boly (Example 28); assay type: in vivo
From the text: The effects of the cytokinin-like regulators on the crop yield, crude protein content and real protein content of maize for silage, observed under field conditions in the tests performed in 1979 at the Agricultural Combinate of Boly, Hungary, are listed in Table 20.

[3] = test system: maize leaves; assay: Fixation of 14CO2 in maize leaves (Example 36); details: 18 hours; for Fixation of 14CO2: fresh weight, control 5.72; for Fixation of 14CO2, %: increase over control
Experimental: (§1) The biological activities of cytokinin-like factors can be well characterized by measuring the intensity of the photosynthetic carbon dioxide fixation and the incorporation of labelled amino acids into the TCA-insoluble protein fraction. The intensity of photosynthetic carbon dioxide fixation was determined on maize leaves, utilizing ^14 CO2, whereas the incorporation of amino acids was examined on bean leaves, utilizing […]-^14 C.

[4] = test system: Alfalfa; assay: Alfalfa field tests 1979, Boly (Example 26); assay type: in vivo
From the text: The effects of the compositions according to the invention exerted on the crop yield (green yield), crude protein content, protein nitrogen content and C/N ratio of alfalfa, observed under field conditions in the tests performed in 1979 at the Agricultural Combinate of Boly, Hungary, are listed in Table 17.

[5] = test system: bean leaves; assay: Incorporation of Gly-2-14C in bean leaves (Example 36); details: 18 hours; for Incorporation of Gly-2-14C: fresh weight, control 3.52; for Incorporation of Gly-2-14C, %: increase over control
Experimental: as §1

[6] = test system: Maize; assay: Inhibition of the decomposition of chlorophyll in maize; details: for Chlorophyll content: 100 mg green plant, control 0.65; for activation at 200 ppm: Zea mays, 96 h, read-out: Promotion
Experimental: (§2) Thereafter chlorphyll was extracted from the leaf segments with methanol. To determine the starting state, chlorophyll was extracted with methanol from untreated leaf segments weighing 200 mg. In the control test the leaf segments, weighing 200 mg, were floated on the surface of distilled water for 4 days in the dark, and then chlorophyll was extracted from the leaf segments with methanol. […] For alfalfa and maize the chlorphyll contents of 100 mg of green plant were examined.

[7] = test system: Bean; assay: Stimulation of photosynthesis, 14CO2 incorporation, bean leaf discs (Example 20); details: 2 hours; for activation at 200 ppm: foliar
Experimental: The specific radioactivities of the stock solutions were determined by liquid scintillation. In the control test untreated leaf discs were exposed to labelled carbon, dioxide, and the amount of carbon dioxide incorporated under such conditions was regarded as standard.

[8] = test system: Alfalfa; assay: Inhibition of the decomposition of chlorophyll in alfalfa; details: for Chlorophyll content: 200 ppm, 100 mg green plant, control 0.78; for activation at 200 ppm: Medicago sativa, 96 h, read-out: Promotion
Experimental: as §2

[9] = test system: Bean; assay: Inhibition of the decomposition of chlorophyll in bean leaf segments; details: 4 days dark
Experimental: (§3) The active agent to be tested was dissolved in distilled water to form a 200 ppm solution, and leaf segments of the plants under examination, weighing 200 mg, were floated on the surface of the solution for 4 days in the dark. Thereafter chlorphyll was extracted from the leaf segments with methanol.
(§4) To determine the starting state, chlorophyll was extracted with methanol from untreated leaf segments weighing 200 mg. In the control test the leaf segments, weighing 200 mg, were floated on the surface of distilled water for 4 days in the dark, and then chlorophyll was extracted from the leaf segments with methanol.
(§5) The chlorophyll concentration was determined by measuring the extinction of the extracts at 665 mμ.

[10] = test system: Soybean; assay: Inhibition of the decomposition of chlorophyll in soybean leaf segments; details: 4 days dark
Experimental: as §3, §4, §5

[11] = test system: soybean leaf segments; assay: Stimulation of the protein level of soybean, glycine-14C incorporation (Example 18); details: 24 hours
Experimental: The active agent to be tested was dissolved in distilled water to form a 200 ppm solution, and soybean leaf segments, weighing 200 mg, were floated on the surface of the solution for 24 hours. In the control test leaf segments, weighing 200 mg, were floated on the surface of distilled water.
The leaf segments were washed with distilled water, and then treated for 3 hours with 20 ml of a solution containing labelled amino acid (glycine-^14 C; activity: 2 μCi). After this exposition period the leaf segments were washed with an aboundant amount of water, and the protein content of the leaf segments was isolated in a manner known per se. Stock solution was prepared from the isolated protein, and the specific radioactivity of the solution was determined by liquid scintillation.

[12] = test system: Soybean; assay: Total and protein nitrogen content of soybean (Example 39); assay type: in vivo
From the text: The effects of 1,4-dihydroxyphthalazine and salts thereof exerted on the total nitrogen content and protein nitrogen content of soybean were examined as described in Example 27. The plants were sprayed with the compositions according to the invention at the beginning of the flowering of the apical cluster.

CC(C)[n+]1c[nH]c2ccccc21.[Cl-] [N--Isopropyl-benzimidazolium chloride, N-isopropyl-benzimidazolium chloride]
Grain yield, increase ([1]; in vivo): 57.1% | Grain yield ([1]; seed dressing 0.5 kg/ha + sprays 3, 1, 2 kg/ha, control 132.8): 208.5 q/ha | P2O5 content ([2]; control 7.5): 9.8 % of dry substance | Crude protein content ([2]; control 13.2): 17.1 % of dry substance | C/N ratio ([2]; control 31.4): 23.5 | Green weight ([2]; control 310.2): 398.2 q/ha | C/N ratio, decrease ([2]; in vivo): 25.4% | Crude protein content, increase ([2]; in vivo): 29.7% | Green weight, increase ([2]; in vivo): 28.4% | P2O5 content, increase ([2]; in vivo): 30.8% | Fixation of 14CO2 [3]: 10.92 μCi/g | Fixation of 14CO2, % [3]: 92% | C/N ratio ([4]; control 5.31): 4.20 | P2O5 content ([4]; control 8.3): 10.9 % of dry substance | Crude protein content ([4]; control 21.3): 25.8 % of dry substance | Green yield ([4]; control 120): 142 q/ha | C/N ratio, decrease ([4]; in vivo): 21.0% | Crude protein content, increase ([4]; in vivo): 21.5% | Green yield, increase ([4]; in vivo): 18.7% | P2O5 content, increase ([4]; in vivo): 31.7% | Incorporation of Gly-2-14C [5]: 4.85 μCi/g | Incorporation of Gly-2-14C, % [5]: 35%

N--bromoethyl-benzimidazolium bromide
Fixation of 14CO2 [3]: 6.46 μCi/g | Fixation of 14CO2, % [3]: 13% | Promotion ([6]; 200 ppm): 9.2% | Chlorophyll content ([6]; 200 ppm): 0.71 mg | Stimulation (14CO2 incorporation) ([7]; 200 ppm): 57% | Chlorophyll content [8]: 0.64 mg | Incorporation of Gly-2-14C [5]: 4.36 μCi/g | Incorporation of Gly-2-14C, % [5]: 24%

CCn1cnc2ccccc21 [N--ethyl-benzimidazolium bromide]
Fixation of 14CO2 [3]: 6.72 μCi/g | Fixation of 14CO2, % [3]: 18% | Chlorophyll content ([6]; 200 ppm): 0.79 mg | activation at 200 ppm [6]: 21.5% | activation at 200 ppm [7]: 184% | Chlorophyll content [8]: 0.85 mg | activation at 200 ppm [8]: 8.9% | Incorporation of Gly-2-14C [5]: 4.25 μCi/g | Incorporation of Gly-2-14C, % [5]: 21%

Cn1cnc2ccccc21 [N--methyl-benzimidazolium bromide]
Fixation of 14CO2 [3]: 8.12 μCi/g | Fixation of 14CO2, % [3]: 42% | Chlorophyll content ([6]; 200 ppm): 0.80 mg | activation at 200 ppm [6]: 23% | activation at 200 ppm [7]: 125% | Chlorophyll content [8]: 0.83 mg | activation at 200 ppm [8]: 6.4% | Incorporation of Gly-2-14C [5]: 4.75 μCi/g | Incorporation of Gly-2-14C, % [5]: 35%

Oc1nnc(O)c2ccccc12 [1,4-Dihydroxyphthalazine]
Chlorophyll ([9]; 200 ppm, control 4.2): 5.8 mg | activation at 200 ppm ([9]; foliar, 96 h, read-out: Promotion): 38% | Chlorophyll ([10]; 200 ppm, control 3.5): 4.2 mg | activation at 200 ppm ([10]; Glycine max, foliar, 96 h, read-out: Promotion): 20% | Radioactivity ([11]; 200 ppm, control 11.9): 16.1 mu Ci/100 mg | activation at 200 ppm ([11]; Glycine max): 35.3% | Protein nitrogen content ([12]; control 1.9): 3.8 % of dry substance | Total nitrogen content ([12]; control 2.6): 4.6 % of dry substance | Protein nitrogen content, increase ([12]; in vivo): 100.0% | Total nitrogen content, increase ([12]; in vivo): 77.0%
